The text below walks through data of US7635685B2 (priority 2003, dated 2009).

≈ marks a conversion by molar mass, not a printed value. Where “and” joins values, the source holds several entries; their conditions need not be identical. Identical values can stand only once. Like-named read-outs stand apart in the source and are kept apart here. Some results are limits rather than exact numbers.

Data set [1] deals with 27-mer 16S A site RNA construct (AS-wt). The format is binding.
Data set [2] relates to B. anthracis (Sterne strain). Description: microbe, parasite or virus in culture. The format is cell-based, Bacillus anthracis.
Data set [3] concerns Bacillus subtilis. Description: microbe, parasite or virus in culture. In kind it is cell-based.
Data set [4] relates to Pseudomonas aeruginosa (ATCC 27853). The data set is described as follows: microbe, parasite or virus in culture. In kind it is cell-based.
In data set [5] the test system is Staphylococcus epidermidis. Description: microbe, parasite or virus in culture. The format is cell-based.
Data set [6] relates to E. coli strains. The data set is described as follows: microbe, parasite or virus in culture. In kind it is cell-based.
The test system of data set [7] is Salmonella virchow (SV49). Description: microbe, parasite or virus in culture. The format is cell-based.
Data set [8] has as its system E. coli XL1(pET9d). The data set is described as follows: microbe, parasite or virus in culture. In kind it is cell-based.
For data set [9] the following is noted: in vivo; cited from earlier work.
The test system of data set [10] is adenylyl(3′-5′)-adenosine (ApA). The settings on record: cited from earlier work.

As usually defined, the Kd is the concentration at which binding is half-saturated. Consider `NCC1O[C@H](OC2C(O)[C@H](OC3C(O)[C@H](N)CC(N)[C@H]3O[C@H]3OC(CN)[C@@H](O)C(O)C3N)O[C@@H]2CO[C@@H]2OC(CO)[C@@H](O)C(O)C2O)C(N)C(O)[C@@H]1O` (stereo partly shown) [Compound XII], for which, in [1] (read-out: Kd), the dissociation constant Kd was 1.1 ± 0.2 µM. In data set [2] (Bacillus anthracis, 18 h), this molecule displayed an MIC of 8 µg/mL (≈ 10.3 µM).

For `NCC1O[C@H](O[C@@H]2C(N)C[C@@H](N)C(O)[C@H]2O[C@@H]2O[C@H](CS[C@@H]3O[C@H](CO)[C@H](O)C3O)[C@H](O[C@H]3O[C@@H](CN)[C@@H](O)C(O)C3N)C2O)C(N)[C@@H](O)[C@@H]1O` (stereo partly shown) [Compound XI], the MIC in data set [3] (Bacillus subtilis, ATCC6633) is 1 to 2.5 µg/mL (≈ 1.31 to 3.28 µM); in data set [4] (Pseudomonas aeruginosa, ATCC27853) it was 200 to 400 µg/mL (≈ 262 to 524 µM); in data set [5] (Staphylococcus epidermidis, ATCC12228), 1.5 to 3 µg/mL (≈ 1.97 to 3.93 µM); in data set [6] (Escherichia coli) it was 30 to 40 µg/mL (≈ 39.3 to 52.4 µM); in data set [6] (Escherichia coli, ATCC25922) it was 25 to 40 µg/mL (≈ 32.8 to 52.4 µM); in [7] (Salmonella enterica) it was over 250 µg/mL. Also, the MIC in data set [8] (Escherichia coli) is over 200 µg/mL; in [2] (Bacillus anthracis, 18 h), 2 µg/mL (≈ 2.62 µM). Moreover, in [1] (read-out: Kd), the Kd was found to be 1 ± 0.2 µM.

As for `NC[C@H]1O[C@H](O[C@H]2[C@H](O)[C@@H](O[C@H]3O[C@H](CO)[C@@H](O)[C@H](N)[C@H]3O)[C@H](N)C[C@@H]2N)[C@H](O)[C@@H](O)[C@@H]1O` [KAN], the MIC in [4] is 400 to 500 µg/mL; in data set [7] it was 500 to 570 µg/mL; in [8] it was 260 to 270 µg/mL.

What is called LD50 is the dose at which mortality reaches 50%. `NC[C@@H]1O[C@H](O[C@H]2[C@@H](O)[C@H](O[C@@H]3[C@@H](O)[C@H](N)C[C@H](N)[C@H]3O[C@H]3O[C@H](CO)[C@@H](O)C[C@H]3N)O[C@@H]2CO)[C@H](N)[C@@H](O)[C@@H]1O[C@H]1O[C@H](CO)[C@@H](O)[C@H](O)[C@@H]1O` [lividomycin]: in [9], the 50% lethal dose (LD50) was 280 mg/kg.

Regarding `NC[C@@H]1O[C@H](O[C@H]2[C@@H](O)[C@H](O[C@@H]3[C@@H](O)[C@H](N)C[C@H](N)[C@H]3O[C@H]3O[C@H](CO)[C@@H](O)[C@H](O)[C@H]3N)O[C@@H]2CO)[C@H](N)[C@@H](O)[C@@H]1O` [paromomycin], the median lethal dose (LD50) in data set [9] is given as 160 mg/kg.

Turning to `NC[C@H]1O[C@H](O[C@H]2[C@H](O[C@@H]3O[C@H](CO)[C@@H](O)[C@H]3O)[C@@H](O)[C@H](N)C[C@@H]2N)[C@H](N)[C@@H](O)[C@@H]1O` [ribostamycin], the median lethal dose (LD50) in [9] is given as 260 mg/kg.

Regarding neomycin B, the 50% lethal dose (LD50) in data set [9] is on record as 24 mg/kg. Moreover, the “first-order rate constants lower than those reported for natural ribozymes” value in data set [10] is given as “over 1000 fold”. The “hydrolysis of ApA faster than 1,3-propanediamine” value in data set [10] was 3 fold. Moreover, the MIC in data set [3] was 0.8 to 0.9 µg/mL; in data set [4], 55 to 60 µg/mL; in data set [5], 0.3 to 0.4 µg/mL; in data set [6], 4 to 5.5 µg/mL and 8 to 10 µg/mL; in data set [7], 200 to 250 µg/mL; in [8] it was 50 to 60 µg/mL. In data set [2], this molecule displayed an MIC of 0.25 µg/mL. In addition, in [1] (read-out: binding constant Kd to 16S A site RNA), the Kd was 0.3 µM.
